US5650412A, “HIV protease inhibitors useful for the treatment of AIDS” (Merck & Co., Inc., priority 1995, dated 1997)
pIC50: −log10 of the molar value.

How the values were obtained:
HIV-1 = assay: Cell spread assay: inhibition of the spread of HIV in MT-4 T-lymphoid cell culture; assay type: cell-based; settings: Human immunodeficiency virus 1, 72 h; MT-4 T-lymphoid cells, HIV-1 wild-type, 3 days with inhibitor, p24 accumulation; read-out: CIC95 (inhibitor concentration which reduced the spread of infection by at least 95%)
Protocol: Inhibition of the spread of HIV in cell culture was measured according to Nunberg, J. H. et al., J. Virol. 65, 4887 (1991). In this assay, MT-4 T-lymphoid cells were infected with HIV-1 (wild-type, unless otherwise indicated) by using a predetermined inoculum, and cultures were incubated for 24 h. At this time, ≤1% of the cells were positive by indirect immunofluorescence. Cells were then extensively washed and distributed into 96-well culture dishes. Serial twofold dilutions of inhibitor were added to the wells, and cultures were continued for 3 additional days. At 4 days postinfection, 100% of the cells in control cultures were infected. HIV-1 p24 accumulation was directly correlated with virus spread. The cell culture inhibitory concentration was defined as the inhibitor concentration in nanomoles/liter which reduced the spread of infection by at least 95%, or CIC95. The CIC95 for compound A is 25 nM.
INHIBITION OF VIRUS SPREAD
A. Preparation of HIV-infected MT-4 cell Suspension […]
The concentration of HIV p24 antigen is measured by an enzyme immunoassay, described as follows. Aliquots of p24 antigen to be measured are added to microwells coated with a monoclonal antibody specific for HIV core antigen. […]

HIV protease = target: T1, HIV protease (Human immunodeficiency virus type 1 group M subtype B, UniProt P04585); assay: Inhibition of Microbial Expressed HIV Protease (protease expressed in Escherichia coli, peptide substrate, HPLC of products); assay type: biochemical; settings: 50 mM Na acetate, pH 5.5, 30° C., 1 hour
T1 construct: made in house; host or cells: Escherichia coli
Protocol: Assay for Inhibition of Microbial Expressed HIV Protease
Inhibition studies of the reaction of the protease expressed in Eschericia coli with a peptide substrate [Val-Ser-Gln-Asn-(betanaphyl)Ala-Pro-Ile-Val, 0.5 mg/mL at the time the reaction is initiated] were in 50 mM Na acetate, pH 5.5, at 30° C. for 1 hour. Various concentrations of inhibitor in […] DMSO were added to […] of the peptide solution in water. The reaction is initiated by the addition of […] of 0.33 nM protease (0.11 ng) in a solution of 0.133M Na acetate pH 5.5 and 0.1% bovine serum albumin. The reaction was quenched with […] of 5% phosphoric acid. Products of the reaction were separated by HPLC (VYDAC wide pore 5 cm C-18 reverse phase, acetonitrile gradient, 0.1% phosphoric acid). The extent of inhibition of the reaction was determined from the peak heights of the products.

COc1cc(CN2CCN(C[C@@H](O)[C@H](Cc3ccccc3)NC(=O)O[C@@H]3CCS(=O)(=O)[C@@H]3C(C)C)[C@H](C(=O)NC(C)(C)C)C2)cc2c1OCO2 [Compound A, N-tert-butyl-1-[2'(R)-hydroxy-4'-phenyl-3'(S)-[3"(R)-[1'",1'"-dioxo-2'"(R)-methylethyl]tetrahydrothienyloxycarbonylamino]butyl]-4-[(3'-methoxy-4',5'-methylenedioxyphenyl)methyl]piperazine-2(S)-carboxamide]
IC95 (HIV-1): 0.025 µM
pIC50 (HIV protease): ~8.92
